Results: US20220279826A1, “OFF-FLAVOR SUPPRESSING AGENT” (AJINOMOTO CO., INC., priority 2019, published 2022)

How the values were obtained:
[1] = Sensory evaluation of off-taste suppressing effect in 0.8 wt % potassium chloride aqueous solution (Experimental Examples 1 and 2)
Protocol: Each compound shown in the following Tables 1 to 13 was added to a 0.8 wt % potassium chloride aqueous solution at the concentration (addition concentration) shown in the following Tables 1 to 13 to prepare each evaluation sample.
(§1) Based on the following evaluation criteria, a panel of two experts determined by consensus the intensity of off-tastes (bitter taste, metallic taste, harsh taste, astringent taste) derived from potassium chloride in each evaluation sample, by reference to each potassium chloride aqueous solution adjusted to 0.8 wt %, 0.75 wt %, 0.7 wt %, or 0.65 wt %.
−: intensity of the same level as potassium chloride aqueous solution with potassium chloride concentration of not less than 0.8 wt %
+: intensity of the same level as potassium chloride aqueous solution with potassium chloride concentration of not less than 0.75 wt % and less than 0.8 wt %
++: intensity of the same level as potassium chloride aqueous solution with potassium chloride concentration of not less than 0.7 wt % and less than 0.75 wt %
+++: intensity of the same level as potassium chloride aqueous solution with potassium chloride concentration of not less than 0.65 wt % and less than 0.7 wt %
Each compound shown in the following Table 14 was added to a 0.8 wt % potassium chloride aqueous solution at the concentration (addition concentration) shown in the following Table 14 to prepare each evaluation sample.

[2] = Sensory evaluation in Japanese noodle soup base solution with potassium chloride (0.2 g) (Experimental Example 5); details: for off-taste suppressing effect: Japanese noodle soup base solution, potassium chloride 0.2 g; for intensity of off-tastes (bitter taste, metallic taste, harsh taste, astringent taste) derived from potassium chloride: base solution of Table 19
Protocol: Potassium chloride (0.2 g) was added to a commercially available Japanese noodle soup base (manufactured by Yamaki Co., Ltd.) (11.1 g), and dissolved by adding hot water (88.7 g) to prepare a base solution.
Each compound shown in the following Table 19 was added to the base solution prepared above so as to achieve the concentration (addition concentration) shown in the following Table 19 to prepare each evaluation sample.
as §1, with “0.2” for “0.8”, “0.15” for “0.75”, “%” for “%, 0.7 wt %,”, “0.1” for “0.65”

[3] = 0.8 wt % potassium chloride aqueous solution, addition concentration 100 weight ppb (12.5 weight ppm with respect to potassium chloride)
[4] = in words, potassium chloride aqueous solutions, Tables 1 to 14
[5] = potassium chloride aqueous solutions, Tables 1 to 14
[6] = 0.8 wt % potassium chloride aqueous solution, addition concentration 1 weight ppb (0.125 weight ppm with respect to potassium chloride)
[7] = 0.8 wt % potassium chloride aqueous solution, addition concentration 5 weight ppb (0.625 weight ppm with respect to potassium chloride)
[8] = 0.8 wt % potassium chloride aqueous solution, addition concentration 10 weight ppb (1.25 weight ppm with respect to potassium chloride)
[9] = 0.8 wt % potassium chloride aqueous solution, addition concentration 50 weight ppb (6.25 weight ppm with respect to potassium chloride)
[10] = 0.8 wt % potassium chloride aqueous solution, addition concentration 500 weight ppb (62.5 weight ppm with respect to potassium chloride)
[11] = 0.8 wt % potassium chloride aqueous solution, addition concentration 1000 weight ppb (125 weight ppm with respect to potassium chloride)

Row | Compound | off-taste suppressing effect [1, 3] | off-taste suppressing effect [1, 4] | intensity of off-tastes (bitter taste, metallic taste, harsh taste, astringent taste) derived from potassium chloride [1, 5] | off-taste suppressing effect [1, 11] | also measured
1 | CCc1ccco1 [2-ethylfuran, reference compound] | − (intensity of the same level as potassium chloride aqueous solution with potassium chloride concentration of not less than 0.8 wt %) | could not be confirmed | did not show changes | – | –
2 | CCCCCc1ccco1 [2-pentylfuran, reference compound] | − (intensity of the same level as potassium chloride aqueous solution with potassium chloride concentration of not less than 0.8 wt %) | could not be confirmed | did not show changes | – | –
3 | CC(=O)c1cc(C)oc1C [3-acetyl-2,5-dimethylfuran] | – | – | decreased | – | off-taste suppressing effect ([2]; addition concentration 5 weight ppb (2.5 weight ppm with respect to potassium chloride)): +++ (intensity of the same level as potassium chloride aqueous solution with potassium chloride concentration of less than 0.1 wt %); intensity of off-tastes (bitter taste, metallic taste, harsh taste, astringent taste) derived from potassium chloride [2]: decreased; off-taste suppressing effect [1, 6]: + (intensity of the same level as potassium chloride aqueous solution with potassium chloride concentration of not less than 0.75 wt % and less than 0.8 wt %); off-taste suppressing effect [1, 7]: ++ (intensity of the same level as potassium chloride aqueous solution with potassium chloride concentration of not less than 0.7 wt % and less than 0.75 wt %); off-taste suppressing effect [1, 8]: + (intensity of the same level as potassium chloride aqueous solution with potassium chloride concentration of not less than 0.75 wt % and less than 0.8 wt %)
4 | CC(=O)OC1=C(C)OC(C)C1=O (stereo not shown) [4-acetoxy-2,5-dimethyl-3(2H)-furanone] | ++ (intensity of the same level as potassium chloride aqueous solution with potassium chloride concentration of not less than 0.7 wt % and less than 0.75 wt %) | – | decreased | – | off-taste suppressing effect ([2]; addition concentration 100 weight ppb (50 weight ppm with respect to potassium chloride)): + (intensity of the same level as potassium chloride aqueous solution with potassium chloride concentration of not less than 0.15 wt % and less than 0.2 wt %); intensity of off-tastes (bitter taste, metallic taste, harsh taste, astringent taste) derived from potassium chloride [2]: decreased; off-taste suppressing effect [1, 9]: + (intensity of the same level as potassium chloride aqueous solution with potassium chloride concentration of not less than 0.75 wt % and less than 0.8 wt %); off-taste suppressing effect [1, 10]: + (intensity of the same level as potassium chloride aqueous solution with potassium chloride concentration of not less than 0.75 wt % and less than 0.8 wt %)
5 | CCC1OC(=O)C(O)=C1C (stereo not shown) [5-ethyl-3-hydroxy-4-methyl-2(5H)-furanone, reference compound] | − (intensity of the same level as potassium chloride aqueous solution with potassium chloride concentration of not less than 0.8 wt %) | could be hardly confirmed | – | − (intensity of the same level as potassium chloride aqueous solution with potassium chloride concentration of not less than 0.8 wt %) | off-taste suppressing effect [1, 6]: − (intensity of the same level as potassium chloride aqueous solution with potassium chloride concentration of not less than 0.8 wt %); off-taste suppressing effect [1, 7]: + (intensity of the same level as potassium chloride aqueous solution with potassium chloride concentration of not less than 0.75 wt % and less than 0.8 wt %); off-taste suppressing effect [1, 8]: + (intensity of the same level as potassium chloride aqueous solution with potassium chloride concentration of not less than 0.75 wt % and less than 0.8 wt %); off-taste suppressing effect [1, 9]: − (intensity of the same level as potassium chloride aqueous solution with potassium chloride concentration of not less than 0.8 wt %); off-taste suppressing effect [1, 10]: − (intensity of the same level as potassium chloride aqueous solution with potassium chloride concentration of not less than 0.8 wt %)
6 | CCC1=C(O)C(=O)C(C)O1 (stereo not shown) [5-ethyl-4-hydroxy-2-methyl-3(2H)-furanone, reference compound] | − (intensity of the same level as potassium chloride aqueous solution with potassium chloride concentration of not less than 0.8 wt %) | could be hardly confirmed | – | – | off-taste suppressing effect [1, 8]: − (intensity of the same level as potassium chloride aqueous solution with potassium chloride concentration of not less than 0.8 wt %); off-taste suppressing effect [1, 9]: + (intensity of the same level as potassium chloride aqueous solution with potassium chloride concentration of not less than 0.75 wt % and less than 0.8 wt %)
7 | CC(=O)O [acetic acid, reference compound] | – | could not be confirmed | did not show changes | − (intensity of the same level as potassium chloride aqueous solution with potassium chloride concentration of not less than 0.8 wt %) | –
8 | CCCC(=O)O [butyric acid] | − (intensity of the same level as potassium chloride aqueous solution with potassium chloride concentration of not less than 0.8 wt %) | – | decreased | + (intensity of the same level as potassium chloride aqueous solution with potassium chloride concentration of not less than 0.75 wt % and less than 0.8 wt %) | off-taste suppressing effect [1, 10]: + (intensity of the same level as potassium chloride aqueous solution with potassium chloride concentration of not less than 0.75 wt % and less than 0.8 wt %)
9 | O=CO [formic acid, reference compound] | – | could not be confirmed | did not show changes | − (intensity of the same level as potassium chloride aqueous solution with potassium chloride concentration of not less than 0.8 wt %) | –
10 | CCCCCC(=O)O [hexanoic acid, reference compound] | – | could not be confirmed | did not show changes | − (intensity of the same level as potassium chloride aqueous solution with potassium chloride concentration of not less than 0.8 wt %) | –
11 | CCCCC(=O)O [pentanoic acid, reference compound] | – | could not be confirmed | did not show changes | − (intensity of the same level as potassium chloride aqueous solution with potassium chloride concentration of not less than 0.8 wt %) | –
